The source of these data is patent publication US20240343727A1, “PYRIDAZINONE OR PYRIDINONE COMPOUNDS, PREPARATION METHODS AND USES THEREOF” (InventisBio Co., Ltd., priority 2021, published 2024).

pIC50: −log10 of the molar value.

The target in the assay is T1, PARP7 (Homo sapiens, UniProt Q7Z3E1).
T1 sequence (Q7Z3E1 1-657): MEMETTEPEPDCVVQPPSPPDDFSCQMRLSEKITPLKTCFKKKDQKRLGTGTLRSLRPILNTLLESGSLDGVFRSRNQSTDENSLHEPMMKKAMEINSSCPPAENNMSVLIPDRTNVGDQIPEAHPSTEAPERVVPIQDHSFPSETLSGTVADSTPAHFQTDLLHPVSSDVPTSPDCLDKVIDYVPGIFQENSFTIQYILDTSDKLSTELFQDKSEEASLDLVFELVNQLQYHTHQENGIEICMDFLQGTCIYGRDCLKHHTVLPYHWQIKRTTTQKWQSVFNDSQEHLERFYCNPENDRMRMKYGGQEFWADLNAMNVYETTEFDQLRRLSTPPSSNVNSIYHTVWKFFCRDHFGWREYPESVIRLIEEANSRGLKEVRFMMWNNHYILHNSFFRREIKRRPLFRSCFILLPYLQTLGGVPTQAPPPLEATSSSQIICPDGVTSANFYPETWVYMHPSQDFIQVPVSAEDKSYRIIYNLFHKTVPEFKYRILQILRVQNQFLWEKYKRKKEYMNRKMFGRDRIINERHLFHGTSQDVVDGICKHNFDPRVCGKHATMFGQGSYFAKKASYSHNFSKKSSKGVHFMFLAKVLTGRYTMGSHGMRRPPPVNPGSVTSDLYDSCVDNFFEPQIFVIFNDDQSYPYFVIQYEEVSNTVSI
Kind of assay: PARP7 TR-FRET assay (binding, displacement of biotinylated Probe A). The settings on record: 6 nM PARP7, 2 nM Probe A, 25° C., 30 min. In a few lines:
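Compound displacement of biotinylated Probe A (2 nM) from PARP7 (6 nM) measured by TR-FRET in HEPES pH 8.0 buffer, 30 min at 25° C. Detection used ULight-anti 6xHis (4 nM) plus Eu-streptavidin (0.25 nM) for 30 min, reading the 665/615 nm ratio. % inhibition was taken against DMSO and no-enzyme wells, and IC50 from a Hill fit.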
The compound `O=C(CC1CN(c2cc(C(F)(F)F)c(=O)[nH]n2)c2ccc(F)cc2O1)N1CCN(c2ncc(C(F)(F)F)cn2)CC1` (single isomer, unassigned) [Compound 158] gave a pIC50 of 6.00 to 7.00.

Consider `O=C(CC1CN(c2cc(C(F)(F)F)c(=O)[nH]n2)c2ccccc2O1)N1CCn2c(nnc2C(F)(F)F)C1` (single isomer, unassigned) [Compound 289], for which the pIC50 is less than 6.00. The value for `O=C(c1cccc(Oc2n[nH]c(=O)c(C(F)(F)F)c2N2CC3(CCC3)C2)c1)N1CCN(c2ncc(OC(F)(F)F)cn2)CC1` [Compound 276] was more than 7.00. The value for `O=C(C[C@@H]1CN(c2n[nH]c(=O)c3ccc(N4CC(F)C4)cc23)CCO1)N1CCN(c2ncc(C(F)(F)F)cn2)CC1` [Compound 207] was more than 7.00; that for `CN1CC2(C1)CN(c1c(Oc3cccc(C(=O)N4CCN(c5ncc(C(F)(F)F)cn5)CC4)c3)n[nH]c(=O)c1C(F)(F)F)C2` [Compound 69] was more than 7.00; that for `O=C(CC1CN(c2n[nH]c(=O)c3cc(Cl)cc(F)c23)CCO1)N1CCN(c2ncc(C(F)(F)F)cn2)CC1` (single isomer, unassigned) [Compound 241] was less than 6.00. The value for `C#Cc1ccc2c(N3CCOC(CC(=O)N4CCN(c5ncc(C(F)(F)F)cn5)CC4)C3)n[nH]c(=O)c2c1` (single isomer, unassigned) [Compound 196] was 6.00 to 7.00; that for `O=C(CC1CN(c2cc(C(F)(F)F)c(=O)[nH]n2)c2cc(N3CCOCC3=O)ccc2O1)N1CCN(c2ncc(C(F)(F)F)cn2)CC1` (single isomer, unassigned) [Compound 282] was more than 7.00; that for `C[C@H]1CN(c2n[nH]c(=O)c3c(F)cccc23)C[C@@H](CC(=O)N2CCN(c3ncc(C(F)(F)F)cn3)CC2)O1` (stereo in doubt) [Compound 95] was more than 7.00. `O=C([C@@H]1COCCN1c1cc(C(F)(F)F)c(=O)[nH]n1)N1CCN(c2ncc(C(F)(F)F)cn2)CC1` [Compound 36] had a pIC50 of more than 7.00. The value for `CN1CC[C@@H](OCC(=O)N2CCN(c3ncc(C(F)(F)F)cn3)CC2)c2n[nH]c(=O)c(C(F)(F)F)c21` (single isomer, unassigned) [Compound 4] was more than 7.00. The value for `O=C(CC[C@@H]1CCCN1c1n[nH]c(=O)c2c(F)cccc12)N1CCN(c2ncc(C(F)(F)F)cn2)CC1` [Compound 97] was more than 7.00; that for `C[C@@H]1CN(C(=O)CC2CN(c3cc(C(F)(F)F)c(=O)[nH]n3)c3cc(F)ccc3O2)CCN1c1ncc(C#N)cn1` (single isomer, unassigned) [Compound 326] was 6.00 to 7.00; that for `O=C(OC1CN(c2cc(C(F)(F)F)c(=O)[nH]n2)CCC1(F)F)N1CCN(c2ncc(C(F)(F)F)cn2)CC1` (single isomer, unassigned) [Compound 81] was more than 7.00.

Consider `COC1CN(c2c(Oc3ccnc(C(=O)N4CCN(c5ncc(C(F)(F)F)cn5)CC4)c3)n[nH]c(=O)c2C(F)(F)F)C1` [Compound 315], for which the pIC50 is more than 7.00. As to `CS(=O)(=O)Cc1ccc2c(c1)N(c1cc(C(F)(F)F)c(=O)[nH]n1)CC(CC(=O)N1CCN(c3ncc(C(F)(F)F)cn3)CC1)O2` (single isomer, unassigned) [Compound 270], the pIC50 was more than 7.00. The value for `O=C(CO[C@@H]1C[C@@H](CC2CC2)Oc2c1n[nH]c(=O)c2C(F)(F)F)N1CCN(c2ncc(C(F)(F)F)cn2)CC1` (stereo in doubt) [Compound 144] was more than 7.00.

The compound `O=C(COC1CCOc2c1n[nH]c(=O)c2C1CC1)N1CCN(c2ncc(C(F)(F)F)cn2)CC1` (single isomer, unassigned) [Compound 128] showed a pIC50 of more than 7.00. The value for `C[C@@H]1CN(c2n[nH]c(=O)c3cccc(F)c23)C[C@@H](CC(=O)N2CCN(c3ncc(C(F)(F)F)cn3)CC2)O1` (stereo in doubt) [Compound 90] was 6.00 to 7.00; that for `CS(=O)(=O)c1ccc2c(c1)N(c1cc(C(F)(F)F)c(=O)[nH]n1)CC(CC(=O)N1CCN(c3ncc(C(F)(F)F)cn3)CC1)O2` (single isomer, unassigned) [Compound 205] was more than 7.00.

Consider `C#Cc1cnc(N2CCN(C(=O)c3cccc(Oc4n[nH]c(=O)c(C(F)(F)F)c4N4CC5(COC5)C4)c3)CC2)nc1` [Compound 302], for which the pIC50 is more than 7.00. The value for `Cc1cc(Oc2n[nH]c(=O)c(C(F)(F)F)c2C)cc(C(=O)N2CCN(c3ncc(C(F)(F)F)cn3)CC2)c1` [Compound 23] was more than 7.00. The value for `O=C(CC1CN(c2cc(C(F)(F)F)c(=O)[nH]n2)c2ccccc2O1)N1CCN(c2ccc(C(F)(F)F)cn2)CC1` (single isomer, unassigned) [Compound 246] was more than 7.00; that for `O=C(c1cccc(Oc2n[nH]c(=O)c(C(F)(F)F)c2N2CC3(CC(F)C3)C2)c1)N1CCN(c2ncc(C(F)(F)F)cn2)CC1` [Compound 176] was more than 7.00; that for `CC(=O)N1CCN(C(=O)c2cccc(Oc3n[nH]c(=O)c(C(F)(F)F)c3N3CC4(CCC4)C3)c2)CC1` [Compound 160] was more than 7.00. The value for `O=C(c1cncc(Oc2n[nH]c(=O)c(C(F)(F)F)c2N2CC3(C2)CC(F)(F)C3)c1)N1CCN(c2ccc(C(F)(F)F)cn2)CC1` [Compound 335] was more than 7.00; that for `COC1CN(c2c(Oc3cncc(C(=O)N4CCN(c5ncc(C(F)(F)F)cn5)CC4)c3)n[nH]c(=O)c2C(F)(F)F)C1` [Compound 239] was more than 7.00. `C[C@@H]1CN(C(=O)CC2CN(c3cc(C(F)(F)F)c(=O)[nH]n3)c3cc(C#N)ccc3O2)CCN1c1cnc(C(F)(F)F)cn1` (single isomer, unassigned) [Compound 153] showed a pIC50 of more than 7.00. The value for `N#Cc1ccc2c(=O)[nH]nc(N3CCOC(CC(=O)N4CCN(c5ncc(C(F)(F)F)cn5)CC4)C3)c2c1` (single isomer, unassigned) [Compound 244] was 6.00 to 7.00; that for `C#Cc1cnc(N2CCN(C(=O)c3cncc(Oc4n[nH]c(=O)c(C(F)(F)F)c4N4CC5(C4)CC(F)(F)C5)c3)CC2)nc1` [Compound 299] was more than 7.00; that for `O=C(CC1CN(c2cc(C(F)(F)F)c(=O)[nH]n2)c2ccccc2O1)N1CCN(c2ncc(Cl)cn2)CC1` (single isomer, unassigned) [Compound 296] was more than 7.00.

`O=C(CC[C@@H]1COCCN1c1cc(C(F)(F)F)c(=O)[nH]n1)N1CCN(c2ncc(C(F)(F)F)cn2)CC1` [Compound 58]: the pIC50 was more than 7.00.

Consider `O=C(CC1CN(c2cc(C(F)(F)F)c(=O)[nH]n2)c2cc(C3CC3)ccc2O1)N1CCN(c2ncc(C(F)(F)F)cn2)CC1` (single isomer, unassigned) [Compound 135], for which the pIC50 is more than 7.00. The value for `N#Cc1ccc(N2CCN(C(=O)CC3CN(c4cc(C(F)(F)F)c(=O)[nH]n4)c4cc(C#N)ccc4O3)CC2)nc1` (single isomer, unassigned) [Compound 230] was 6.00 to 7.00; that for `N#Cc1ccc(N2CCN(C(=O)c3cc(Oc4n[nH]c(=O)c(C(F)(F)F)c4N4CC5(C4)CC(F)(F)C5)ccn3)CC2)nc1` [Compound 306] was more than 7.00.

`Cc1c(C(F)(F)F)c(Oc2cccc(C(=O)N3CCN(c4ncc(C(F)(F)F)cn4)CC3)c2)n[nH]c1=O` [Compound 17]: the negative-log IC50 (pIC50) is less than 6.00.

`C[C@@H]1CN(C(=O)CC2CN(c3cc(C(F)(F)F)c(=O)[nH]n3)c3cc(F)ccc3O2)CCN1c1ncc(C#N)cn1` (single isomer, unassigned) [Compound 325] gave a pIC50 of more than 7.00. The value for `COCc1ccc2c(c1)N(c1cc(C(F)(F)F)c(=O)[nH]n1)CC(CC(=O)N1CCN(c3ncc(C(F)(F)F)cn3)CC1)O2` (single isomer, unassigned) [Compound 267] was more than 7.00. Compound `COC1CN(c2c(Oc3cccc(C(=O)N4CCN(c5ncc(C(F)(F)F)cn5)CC4)c3)n[nH]c(=O)c2C(F)(F)F)C1` [Compound 166] gave a pIC50 of more than 7.00. `C[C@@H]1CN(C(=O)c2cc(Oc3n[nH]c(=O)c(C(F)(F)F)c3N3CC4(C3)CC(F)(F)C4)ccn2)CCN1c1ncc(Cl)cn1` [Compound 319] showed a pIC50 of more than 7.00. The value for `O=C(CC1CN(c2n[nH]c(=O)c3cc(Cl)cc(F)c23)CCO1)N1CCN(c2ncc(C(F)(F)F)cn2)CC1` (single isomer, unassigned) [Compound 240] was 6.00 to 7.00; that for `N#Cc1ccc(N2CCN(C(=O)CC3CN(c4cc(C(F)(F)F)c(=O)[nH]n4)c4cc(C(F)F)ccc4O3)CC2)nc1` (single isomer, unassigned) [Compound 328] was more than 7.00; that for `CC(C)(O)c1cnc(N2CCN(C(=O)CC3CN(c4cc(C(F)(F)F)c(=O)[nH]n4)c4cc(F)ccc4O3)CC2)nc1` (single isomer, unassigned) [Compound 351] was more than 7.00.

With `COCC(=O)Nc1ccc2c(c1)N(c1cc(C(F)(F)F)c(=O)[nH]n1)CC(CC(=O)N1CCN(c3ncc(C(F)(F)F)cn3)CC1)O2` (single isomer, unassigned) [Compound 284], the pIC50 is 6.00 to 7.00.
